Test system: M. tuberculosis Erdman
Assay: M. tuberculosis chronic infection mouse model, CFU in the lungs
Format: in vivo, BALB/c mice

## [H]/N=C(/N)N[C@H]1[C@H](O)[C@@H](O)[C@H](O[C@@H]2O[C@@H](C)[C@](O)(C=O)[C@H]2O[C@@H]2O[C@@H](CO)[C@H](O)[C@@H](O)[C@@H]2NC)[C@@H](N/C(N)=N\[H])[C@@H]1O [SM, streptomycin]
100 mg/kg injected subcutaneously (solution in water) daily for 3 weeks, control 6.88
  log CFU in the lungs: 6.13 log CFU
Injected subcutaneously, 100 mg/kg daily 3 weeks, p<0.01
  reduction in growth of the TB bacilli compared to the control group: one
